Biological target: T1, FLT4 (VEGFR3) (Homo sapiens, UniProt P35916)
T1 construct: purchased Thermo Fisher Scientific (Life Technologies) SelectScreen
Test: SelectScreen Z'LYTE
Assay type: biochemical
How it was run: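 NU5455 was profiled across the SelectScreen Broad panel of kinase activity and binding assays. Z'LYTE reactions such as CSF1R ran at apparent Km ATP, while the Adapta CAMK1 assay used ATP listed as 10. Values are given as percent.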

T1 sequence (P35916 25-1363): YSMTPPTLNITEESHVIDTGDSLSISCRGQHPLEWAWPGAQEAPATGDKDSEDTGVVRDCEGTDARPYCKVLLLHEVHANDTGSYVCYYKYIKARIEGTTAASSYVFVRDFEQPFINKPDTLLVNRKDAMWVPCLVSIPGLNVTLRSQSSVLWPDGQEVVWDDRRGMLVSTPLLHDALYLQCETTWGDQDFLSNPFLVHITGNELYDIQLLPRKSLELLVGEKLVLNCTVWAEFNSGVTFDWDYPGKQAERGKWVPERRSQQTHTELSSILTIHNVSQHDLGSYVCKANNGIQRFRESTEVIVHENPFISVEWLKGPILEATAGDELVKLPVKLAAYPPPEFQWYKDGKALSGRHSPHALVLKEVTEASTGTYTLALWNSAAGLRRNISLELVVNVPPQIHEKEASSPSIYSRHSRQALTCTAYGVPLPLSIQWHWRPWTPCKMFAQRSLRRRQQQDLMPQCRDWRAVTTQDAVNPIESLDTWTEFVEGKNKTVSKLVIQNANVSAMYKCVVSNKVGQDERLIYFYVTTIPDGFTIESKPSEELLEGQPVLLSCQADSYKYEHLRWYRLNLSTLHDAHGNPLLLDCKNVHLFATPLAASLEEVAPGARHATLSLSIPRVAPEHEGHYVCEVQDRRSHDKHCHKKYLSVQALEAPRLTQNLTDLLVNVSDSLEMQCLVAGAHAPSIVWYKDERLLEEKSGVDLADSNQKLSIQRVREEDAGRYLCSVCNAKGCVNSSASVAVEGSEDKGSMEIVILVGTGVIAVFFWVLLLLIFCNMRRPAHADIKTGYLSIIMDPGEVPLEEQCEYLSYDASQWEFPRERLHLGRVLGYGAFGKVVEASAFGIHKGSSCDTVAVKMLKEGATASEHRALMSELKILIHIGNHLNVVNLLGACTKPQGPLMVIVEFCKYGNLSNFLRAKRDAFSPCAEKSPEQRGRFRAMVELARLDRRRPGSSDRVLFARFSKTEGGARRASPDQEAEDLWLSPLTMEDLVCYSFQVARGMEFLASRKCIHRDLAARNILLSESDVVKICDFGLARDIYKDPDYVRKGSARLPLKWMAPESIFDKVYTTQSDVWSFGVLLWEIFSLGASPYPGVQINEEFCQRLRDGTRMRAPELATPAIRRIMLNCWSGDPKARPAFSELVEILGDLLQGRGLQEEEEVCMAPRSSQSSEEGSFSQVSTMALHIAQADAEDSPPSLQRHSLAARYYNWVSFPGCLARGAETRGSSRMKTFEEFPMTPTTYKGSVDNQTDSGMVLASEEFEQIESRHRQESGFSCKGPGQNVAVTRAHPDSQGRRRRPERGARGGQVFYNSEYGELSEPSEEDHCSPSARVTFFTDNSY

Compound `CN(C(=O)CN1CCOCC1)c1ccc2sc3c(-c4cccc5c(=O)cc(N6CC7CCC(C6)O7)oc45)cccc3c2c1` [NU5455] has an inhibition at 1 µM of 3.5%.

Reference: paper PMC6934184, “Selective DNA-PKcs inhibition extends the therapeutic index of localized radiotherapy and chemotherapy” (The Journal of Clinical Investigation, 2019)
